The values that follow come from article PMC6463023, “Epigenetic Changes at the Birc5 Promoter Induced by YM155 in Synovial Sarcoma” (Journal of Clinical Medicine, 2019).

Data set [1] has as its system survivin. Set-up: method as in PMID 20816704. The note with it: cited from earlier work.
The test system of data set [2] is Yamato human synovial sarcoma cell line. The data set can be described thus: MTT viability assay, Yamato cells, 48 h. The format is cell-based. The note with it: 48 h treatment. How it is done:
(§1) The human SYO-1, Yamato, and HS-SY-II cell lines were received from Torsten Nielsen at the University of British Columbia. The MoJo cell line was developed as previously described from a consented patient’s synovial sarcoma. Each was maintained in Dulbecco’s modified Eagle medium (DMEM) with 10% fetal bovine serum (FBS) and tested for mycoplasma using MycoAlert Plus (Lonza, Walkersville, MD, USA) every 6 months. Cells were seeded in a 96-well tissue culture dish at 1 × 10^4 cells per well. Twenty-four hours after seeding, serial dilutions of YM155 were applied so that the final concentration ranged from 10 μM to 1 nM. Between 24 to 48 h, MTT at 5 mg/mL was applied, and the cells were allowed to incubate at 37 °C and 5% CO2 for 2.5 h. Formazan crystals were resolubilized in 10% SDS and 0.01 M HCl. Absorbance was measured at 570 nm and normalized to 650 nm. Caspase activity was measured using the Caspase-Glo 3/7 and Caspase-Glo 8 (Promega, G8090, and G8200) assay systems. The manufacturer’s instructions were followed for a 96-well plate assay.

Data set [3] has as its system Mojo human synovial sarcoma cell line. Description: MTT viability assay, MoJo cells, 48 h. It counts as cell-based. To be noted: 48 h treatment. On the procedure:
as §1
For orientation: Tetrazolium assays rely on reduction of a dye to a coloured formazan, in cell work by metabolically active cells.

For data set [4], the system named is SYO-1 human synovial sarcoma cell line. Description: MTT viability assay, SYO-1 cells, 48 h. The format is cell-based. The note with it: 48 h treatment. How it is done:
as §1

For data set [5], the system named is HS-SY-II human synovial sarcoma cell line. The data set can be described thus: MTT viability assay, HS-SY-II cells, 24 h. The format is cell-based. To be noted: 24 h viability assay. How it is done:
as §1

Data set [6] concerns synovial sarcomas expressing Rosa26-LSL-SS18-SSX2. The data set can be described thus: Tumor growth in genetically engineered mouse model of synovial sarcoma. It counts as in vivo. On the procedure: Mouse experiments were conducted with the approval of the University of Utah’s Institutional Animal Care Committee in accordance with legal and ethical standards established by the National Research Council and published in the Guide for the Care and Use of Laboratory Animals (protocol # 14-01016). The previously described Rosa26-LSL-SS18-SSX2 mice were maintained on a mixed strain background, C57BL/6 and SvJ. Mice were genotyped with the following primers: Rosa26-LSL-SS18-SSX2 (F flox-[…], F wt–[…]-TGG, R-[…]). TATCre was dosed by 10 μL intramuscular injections at 50 μM at 1 month of age.
(§2) Mice had tumors initiated at 1 month of age. Tumors developed for the next 6 months allowing tumor volumes to reach 500–1000 mm^3. Mice were then subjected to daily intraperitoneal injections of 20 mg/kg of YM155 for 11 days. One mouse with bilateral tumors was censored at day 7. Tumors were measured using digital calipers and volumes were calculated using the equation (L∗W^2)/2. A small portion of the tumor was fixed in 4% paraformaldehyde overnight and then embedded in paraffin. The rest of the tumor was flash frozen in liquid nitrogen and stored at −80 °C until further use.
The control mice group with tumor was compared to the YM155 treated tumor group in a single factor ANOVA statistical test. For most comparisons between control and YM155 treated synovial sarcomas, Student’s t-tests were performed.

A short description of data set [7]: Body weight of mice during YM155 treatment. It counts as in vivo, mouse. To be noted: 20 mg/kg daily for 11 days. On the procedure: as §2
The test system of data set [8] is survivin. Description: Survivin immunoblot of treated mouse synovial sarcomas. It counts as in vivo. The note with it: mouse sarcomas after 11 days of YM155; p = 0.034. How it is done: as §2
(§3) Protein was isolated from cells or tissues by incubating in a mild lysis buffer (10 mM Tris-HCl pH 8.1, 10 mM NaCl, 0.5% NP-40, and proteinase inhibitors). The fractions were clarified at 14,000 rpm for 10 min before loading 25–50 μg/sample for gel electrophoresis and transfer to PVDF membrane. Western blots were probed with the following primary antibodies: anti-Survivin (Cell Signaling Technology, 2808, 1:1000), anti-NFκB/p65 (Cell Signaling Technology, 8242, 1:800) anti-GAPDH (Proteintech, 10494-1-AP, 1:1000). The immunoblots were probed secondarily with goat anti-rabbit antibodies conjugated with horse radish peroxidase and bands were detected using Bio-Rad Gel Doc MP imaging station.

In a further data set the test system is caspase 3/7. The data set can be described thus: Caspase-Glo 3/7 activity in HS-SY-II cells. The note with it: 24 h incubation. It counts as cell-based, human. On the procedure: (§4) Cells were seeded in a 96-well tissue culture dish at 1 × 10^4 cells per well. Twenty-four hours after seeding, serial dilutions of YM155 were applied so that the final concentration ranged from 10 μM to 1 nM. Between 24 to 48 h, MTT at 5 mg/mL was applied, and the cells were allowed to incubate at 37 °C and 5% CO2 for 2.5 h. Formazan crystals were resolubilized in 10% SDS and 0.01 M HCl. Absorbance was measured at 570 nm and normalized to 650 nm. Caspase activity was measured using the Caspase-Glo 3/7 and Caspase-Glo 8 (Promega, G8090, and G8200) assay systems. The manufacturer’s instructions were followed for a 96-well plate assay.

For a further data set, the system named is caspase 8. The data set can be described thus: Caspase-Glo 8 activity in HS-SY-II cells. It counts as cell-based, human. The note with it: 24 h incubation. How it is done: as §4
The next data set has as its system BIRC5. The data set can be described thus: BIRC5 transcript level by PCR normalized to GAPDH. It counts as cell-based, human. To be noted: HS-SY-II, 24 h, normalized to GAPDH mRNA; p = 0.0006.
In data set [9] the test system is BIRC5 promoter. Description: ChIP-qPCR of histone marks at the BIRC5 promoter in HS-SY-II cells. It counts as cell-based, human. To be noted: 0.2 μM YM155, 24 h, vs controls. How it is done: (§5) Mouse tumors were pulverized in a Covaris tissueTUBE attached to a Covaris glass tube (13 × 65 mm) using a hammer and an aluminum block on dry ice. Samples were intermittently placed in liquid nitrogen to maintain molecular interactions. The powderized tissue was resuspended in PBS + protease inhibitors (Sigma, 11836153001, St. Louis, MO, USA) and fixed in 1% formaldehyde for 10 min at room temperature. The cross linking was quenched by adding 125 mM glycine. Samples were washed three times using cold PBS and cold centrifugation at 1000× g for 5 min. Similarly, cells can be fixed in 1% formaldehyde and washed while cells are still adherent to the bottom of the tissue culture dish. Cells in both cases were lysed using cold Farnham cell lysis buffer (5mM PIPES pH 8.0, 85 mM KCl, 0.5% NP-40) with protease inhibitors by incubating on ice for 10 min. Cells were collected and dounced with a glass tube and rod 20 times with a loose rod and 10 times with a tight rod. Samples were filtered through 70 μm filter and centrifuged at 1000× g for 10 min. The supernatant was removed and 1 mL of RIPA lysis buffer (1% NP-40, 0.5% Na deoxycholate, 0.1% SDS/PBS) was added for every 300 mg of tissue or 1 × 10^7 cells and incubated on ice for 10 min. Sonication proceeded in the following manner: 1 mL aliquots were sonicated with a 30 s on and 30 s off cycle for 8 cycles totaling 4 min of sonication time. Sonicated samples were centrifuged at 1400 rpm for 5 min and the supernatant was kept for chromatin immunoprecipitation.
Dynabeads (Invitrogen, 11204D, Carlsbad, CA, USA) were washed in 0.5 mg/mL BSA/PBS three times on a magnet. Sonicated samples were precleared with 30 μL of beads for 1 h at 4 °C. After preclearing, 50 μL of the sample was set aside as the input DNA. Supernatants were transferred to a new tube and 5 μg of primary antibodies were added and incubated overnight at 4 °C. The following antibodies were used for immunoprecipitation. […]
In general terms: In qPCR the cycle at which signal appears reflects the starting amount.

In data set [10] the test system is Birc5 promoter. The data set can be described thus: ChIP-qPCR of histone marks at the Birc5 promoter in treated mouse synovial sarcomas. It counts as in vivo. To be noted: mouse synovial sarcomas treated 11 days, vs controls. How it is done: as §2
Mouse tumors were pulverized in a Covaris tissueTUBE attached to a Covaris glass tube (13 × 65 mm) using a hammer and an aluminum block on dry ice. Samples were intermittently placed in liquid nitrogen to maintain molecular interactions. The powderized tissue was resuspended in PBS + protease inhibitors (Sigma, 11836153001, St. Louis, MO, USA) and fixed in 1% formaldehyde for 10 min at room temperature. The cross linking was quenched by adding 125 mM glycine. Samples were washed three times using cold PBS and cold centrifugation at 1000× g for 5 min. Similarly, cells can be fixed in 1% formaldehyde and washed while cells are still adherent to the bottom of the tissue culture dish. […]

The test system of another data set is NFκB. The data set can be described thus: NFκB immunoblot of treated mouse synovial sarcomas. The format is in vivo. The note with it: mouse sarcomas after 11 days of YM155; p = 0.015. On the procedure:
as §2, §3

Data set [11] relates to NFκB binding to the BIRC5 promoter. The data set can be described thus: ChIP-qPCR for NFκB at the BIRC5 promoter in HS-SY-II cells. It counts as cell-based, human. To be noted: 0.2 μM YM155, 24 h, vs control, p = 0.32. On the procedure:
as §5, with “Sonicated samples were centrifuged at 1400 rpm for 5 min and the supernatant was kept for chromatin immunoprecipitation.” left out

Another data set deals with synovial sarcoma. The data set can be described thus: YM155 in combination with BCL2 inhibitors.
Details of data set [12]: method as in PMID 18824702. To be noted: patients, clinical trials; cited from earlier work.

Structures are written as SMILES.

Regarding `Cc1ccc(S(=O)(=O)/C=C/C#N)cc1` [BAY 11-7082], the “survivin levels upon inhibition of NFκB” value with survivin [1] was “decrease in survivin levels”.
For `COCCn1c2c([n+](Cc3cnccn3)c1C)C(=O)c1ccccc1C2=O` [YM155, sepantronium bromide], the EC50 in data set [2] was 22 nM; in data set [3] it was 62 nM; in data set [4], 103 nM; in [5] it was 2640 ± 140 nM. Further, in data set [6] (20 mg/kg daily intraperitoneal for 11 days, control tumors 1.78-fold increase, p = 0.028), the “decrease of tumor growth (mean) over 11 days” value amounted to 17%. For the same molecule, the “reduction in tumor volume compared to control treated mice” value in data set [6] (treated mice with synovial sarcoma) is given as 50%. The “weight loss in treated mice” value in data set [7] was “no detectable weight loss”. Besides, the “survivin protein level (immunoblot, normalized to GAPDH)” value in the data set with survivin [8] was “striking decrease”. In the data set with caspase 3/7, the “caspase 3/7 activity” value was “increased with higher concentrations”. Besides, the “caspase 8 activity” value in the data set on caspase 8 was “increased with higher concentrations”. The “reduction in normalized BIRC5 expression” value in the data set on BIRC5 was 39.5%. Also, the “H3K4me1 at the BIRC5 promoter (ChIP-qPCR)” value in the data set with BIRC5 promoter [9] is listed as “a decrease”. For the same molecule, the “H3K27ac at the Birc5 promoter (ChIP-qPCR)” value in the data set on BIRC5 promoter [9] and with Birc5 promoter [10] (p = 0.14) was “elevated levels” each time. Further, the “H3K27me3 at the Birc5 promoter (ChIP-qPCR)” value in the data set with BIRC5 promoter [9] and in the data set with Birc5 promoter [10] (p = 0.045) was “elevated levels” throughout. The “NFκB protein level (immunoblot, normalized to GAPDH)” value in the data set on NFκB is listed as “striking increase”. Also, in [11], the “binding of NFκB to the BIRC5 promoter (ChIP-qPCR)” value is recorded as “unable to detect a difference”. The “synergy of combination with BCL2 inhibitors” value in the data set with synovial sarcoma is reported as “minimally synergistic”. Also, in data set [12], the “dose associated with adverse events” value is “above 4.8 mg/m^2/day”.

As a reminder, the EC50 is the concentration that produces a half-maximal response. Low values mean a more potent agent, high ones a less potent agent.
